In the experiment the target is T1, human PAD4 (Homo sapiens, UniProt Q9UM07).
T1 construct: human PAD4 (NM_012387), A2-P663, was PCR amplified; His-SUMO (N, cleaved yes); made in house; host or cells: E. coli BL21(DE3)
Briefly: In vitro PAD4 BAEE biochemical assay. The note with it: BAEE substrate 3 mM, 5 nM PAD4, 2 mM calcium chloride; geometric mean of multiple experiments. The gist of the method: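 Ammonia produced by BAEE deimination (3 mM substrate, 2 h, 25 °C) was read as fluorescent isoindole after o-phthalaldehyde/DTT derivatization, ex 405 nm/em 535 nm. Human PAD4 at 5 nM final, 2 mM calcium, pH 7.6 MOPS; compound preincubated 30 min. IC50s, normalized to BB-Cl-Amidine and DMSO controls, were geometric-mean averaged.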

T1 sequence (Q9UM07 2-663): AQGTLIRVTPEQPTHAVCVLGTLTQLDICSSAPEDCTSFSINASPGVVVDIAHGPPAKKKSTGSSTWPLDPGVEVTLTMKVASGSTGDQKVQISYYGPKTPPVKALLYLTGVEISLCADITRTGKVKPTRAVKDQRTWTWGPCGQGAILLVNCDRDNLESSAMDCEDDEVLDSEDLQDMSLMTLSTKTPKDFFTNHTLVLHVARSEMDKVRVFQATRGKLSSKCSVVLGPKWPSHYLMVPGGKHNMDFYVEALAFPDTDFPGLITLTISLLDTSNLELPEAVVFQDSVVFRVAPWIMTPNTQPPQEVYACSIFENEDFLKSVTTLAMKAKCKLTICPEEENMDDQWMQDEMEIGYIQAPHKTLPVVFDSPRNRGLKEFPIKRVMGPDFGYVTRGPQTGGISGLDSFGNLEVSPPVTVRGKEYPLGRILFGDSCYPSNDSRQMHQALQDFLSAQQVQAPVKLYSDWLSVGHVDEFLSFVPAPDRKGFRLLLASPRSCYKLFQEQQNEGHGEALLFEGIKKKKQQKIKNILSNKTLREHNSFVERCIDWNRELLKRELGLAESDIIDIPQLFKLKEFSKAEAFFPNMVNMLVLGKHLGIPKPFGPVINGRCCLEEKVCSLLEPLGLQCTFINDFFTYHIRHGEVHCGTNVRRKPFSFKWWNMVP

As usually defined, the IC50 is the midpoint of a concentration-inhibition curve. As to `C[C@H]1NC(=O)[C@@H]2C[C@H]2CCCCCn2c(-c3nc4cc(C(=O)N[C@H]5CNCC[C@@H]5F)c(F)cc4n3CCOC3CC3)cc3ccc1nc32` [Example 600, 1-[2-(cyclopropoxy)ethyl]-6-fluoro-~{N}-[(3~{S},4~ {S})-4-fluoro-3-piperidyl]-2-[(2~{R},5~{R},7~{R})-2-methyl-4-oxo-3,13,19-triazatetracyclo[11.5.2.0^ {5,7}.0^{16,20}]icosa-1(19),14,16(20),17-tetraen-14-yl]benzimidazole-5-carboxamide], the IC50 was found to be 46 nM.

Regarding `COc1cc(C(=O)N2[C@H]3CC[C@@H]2[C@H](N)C3)cc2nc(-c3cc4ccc5nc4n3C[C@H]3C[C@H]3COCCC(=O)N[C@@H]5C)c(C)n12` (single isomer, unassigned) [Example 327, (3˜{S},5˜{R},12˜{R})-18-[7-[(1˜{R},2˜{R},4˜{S})-2-amino-7-azabicyclo[2.2.1]heptane-7-carbonyl]-5-methoxy-3-methyl-imidazo[1,2-a]pyridin-2-yl]-12-methyl-7-oxa-1,11,20-triazatetracyclo[11.5.2.0^{3,5}.0^{16,19}]icosa-13(20),14,16(19),17-tetraen-10-one], the IC50 came to 12 nM.

Take `C[C@H]1NC(=O)C(C)(C)CCCCCCn2c(-c3nc4cc(C(=O)N[C@H]5CNCC[C@@H]5F)c(F)cc4n3CC(F)(F)F)cc3ccc1nc32` [Example 419, 6-fluoro-~{N}-[(3~{S},4~{S})-4-fluoro-3-piperidyl]-1-(2,2,2-trifluoroethyl)-2-[(11~{R})-8,8,11-trimethyl-9-oxo-1,10,19-triazatricyclo[10.5.2.0^{15,18}]nonadeca-12(19),13,15(18),16-tetraen-17-yl]benzimidazole-5-carboxamide]: the IC50 worked out at 370 nM.

As for `COc1cc(C(=O)N2CC[C@@H](OC)[C@@H](N)C2)cc2nc(-c3cc4ccc5nc4n3CCCCCCC3(COC3)C(=O)N[C@@H]5C)n(C)c12` [Example 611, (11~{R})-17-[5-[(3~{S}, 4-{R})-3-amino-4-methoxy-piperidine-1-carbonyl]-7-methoxy-1-methyl-benzimidazol-2-yl]-11-methyl-spiro[1,10,19-triazatricyclo[10.5.2.0^{15,18}]nonadeca-12,14,16,18-tetraene-8,3′-oxetane]-9-one], the IC50 turned out to be 85 nM.

As for `COc1cc(C(=O)N2CC[C@@H](OC)[C@@H](N)C2)cc2nc(-c3cc4ccc5nc4n3CC(F)(F)CCC[C@@H]3C[C@H]3C(=O)N[C@@H]5C)n(C)c12` [Example 848, (2~{R},5~{R},7~{R})-14-[5-[(3~{S},4~{R})-3-amino-4-methoxy-piperidine-1-carbonyl]-7-methoxy-1-methyl-benzimidazol-2-yl]-11,11-difluoro-2-methyl-3,13,19-triazatetracyclo[11.5.2.0^ {5,7}.0^{16,20}]icosa-1(19),14,16(20),17-tetraen-4-one], the IC50 was 33 nM.

As for `COc1cc(C(=O)N2CC[C@@H](OC)[C@@H](N)C2)cc2nc(-c3cc4ccc5nc4n3CCCC(F)(F)C[C@H]3C[C@H]3C(=O)N[C@@H]5C)n(C)c12` [Example 859, (2~{R},5~{R},7~{R})-14-[5-[(3~{S},4~{R})-3-amino-4-methoxy-piperidine-1-carbonyl]-7-methoxy-1-methyl-benzimidazol-2-yl]-9,9-difluoro-2-methyl-3,13,19-triazatetracyclo [11.5.2.0^{5,7}.0^{16,20}] icosa-1(19),14,16(20),17-tetraen-4-one], the IC50 is 38 nM.

In the case of `C[C@H]1NC(=O)c2ccc(Cl)nc2CCCCCn2c(-c3nc4cc(C(=O)N5C[C@H](N)[C@@H]6CC[C@H]5C6)cc(F)c4n3C3CC3)cc3ccc1nc32` [Example 472, (2˜{R})-17-[5-[(1˜{S},4˜{R},5˜{R})-4-amino-2-azabicyclo[3.2.1]octane-2-carbonyl]-1-cyclopropyl-7-fluoro-benzimidazol-2-yl]-8-chloro-2-methyl-3,9,16,22-tetrazatetracyclo[14.5.2.0^{5,10}.0^{19,23}]tricosa-1(21),5(10),6,8,17,19,22-heptaen-4-one], the IC50 amounted to 42 nM.

`[2H]C1([2H])[C@H](N)[C@@H]2CC[C@@H](C2)N1C(=O)c1cc(OC)c2c(c1)nc(-c1cc3ccc4nc3n1CC(F)(F)CCC[C@@H]1C[C@H]1C(=O)N[C@@H]4C)n2C` [Example 765, (2~{R},5~{R},7~{R})-14-[5-[(1~{S},4~{R},5~{R})-4-amino-3,3-dideuterio-2-azabicyclo[3.2.1]octane-2-carbonyl]-7-methoxy-1-methyl-benzimidazol-2-yl]-11,11-difluoro-2-methyl-3,13,19-triazatetracyclo[11.5.2.0^ {5,7}.0^{16,20}]icosa-1(19),14,16(20),17-tetraen-4-one]: the IC50 is 16 nM.

Consider `COc1cc(C(=O)N2C[C@H](N)[C@@H]3CC[C@H]2C3)cc2nc(-c3cc4ccc5nc4n3C[C@H]3C[C@H]3CC[C@]3(F)C[C@H]3C(=O)N[C@@H]5C)n(C3CC3)c12` [Example 772, (3~{S},5~{R},8~{S},10~ {S},13~{R})-19-[5-[(1~{S},4~ {R},5~{R})-4-amino-2-azabicyclo[3.2.1]octane-2-carbonyl]-1-cyclopropyl-7-methoxy-benzimidazol-2-yl]-8-fluoro-13-methyl-1,12,21-triazapentacyclo[12.5.2.0^ {3,5).0^{8,10}.0^{17,20}] henicosa-14(21), 15,17(20),18-tetraen-11-one], for which the IC50 amounted to 6 nM.

For `COCCn1c(-c2cc3ccc4nc3n2CCCCC[C@@H]2C[C@H]2C(=O)N[C@@H]4C)nc2cc(C(=O)N3CC[C@@H](OC)[C@@H](N)C3)cc(F)c21` [Example 436, (2~{R},5~{R},7~{R})-14-[5-[(3~{S},4~{R})-3-amino-4-methoxy-piperidine-1-carbonyl]-7-fluoro-1-(2-methoxyethyl)benzimidazol-2-yl]-2-methyl-3,13,19-triazatetracyclo[11.5.2.0^{5,7}.0^{16,20}] icosa-1(19),14,16(20),17-tetraen-4-one], the IC50 is 93 nM.

Turning to `COc1cc(C(=O)N2CC[C@@H](OC)[C@@H](N)C2)cc2nc(-c3cc4ccc5nc4n3CCCCC[C@]3(F)C[C@H]3C(=O)N[C@@H]5C)n(C)c12` [Example 689, (2~{R},5~{S},7~{S})-14-[5-[(3~{S},4~{R})-3-amino-4-methoxy-piperidine-1-carbonyl]-7-methoxy-1-methyl-benzimidazol-2-yl]-7-fluoro-2-methyl-3,13,19-triazatetracyclo[11.5.2.0^ {5,7}.0^{16,20}]icosa-1(19),14,16(20),17-tetraen-4-one], the IC50 came to 39 nM.

Turning to `COc1cc(C(=O)N2CC[C@@H](OC)[C@@H](N)C2)cc2nc(-c3cc4ccc5nc4n3CC(F)(F)CCCCC3(CC3)C(=O)N[C@@H]5C)n(C)c12` [Example 823, (11~{R})-17-[5-[(3~ {S},4~{R})-3-amino-4-methoxy-piperidine-1-carbonyl]-7-methoxy-1-methyl-benzimidazol-2-yl]-3,3-difluoro-11-methyl-spiro[1,10,19-triazatricyclo[10.5.2.0^ {15,18}]nonadeca-12 (19),13,15(18),16-tetraene-8,1′-cyclopropane]-9-one], the IC50 is 146 nM.

On to `CO[C@@H]1CCN(C(=O)c2cc(F)c3c(c2)nc(-c2cc4ccc5nc4n2CCCCCC[C@@H](c2cccc(Cl)n2)C(=O)N[C@@H]5C)n3C2CC2)C[C@@H]1N` [Example 873, (8~{S},11~{R})-17-[5-[(3~{S}, 4~{R})-3-amino-4-methoxy-piperidine-1-carbonyl]-1-cyclopropyl-7-fluoro-benzimidazol-2-yl]-8-(6-chloro-2-pyridyl)-11-methyl-1,10,19-triazatricyclo[10.5.2.0^{15,18}] nonadeca-12(19), 13,15(18),16-tetraen-9-one], for which the IC50 amounted to 120 nM.

Consider `COc1cc(C(=O)N2C[C@H](N)[C@@H]3CC[C@H]2C3)cc2nc(-c3cc4ccc5nc4n3CCCC[C@]3(F)C[C@H]3C(=O)N3CCC[C@H]53)n(C)c12` [Example 955, (2~{R},8~{S},10~{S})-16-[5-[(1~{S},4~{R},5~{R})-4-amino-2-azabicyclo[3.2.1]octane-2-carbonyl]-7-methoxy-1-methyl-benzimidazol-2-yl]-10-fluoro-6,15,21-triazapentacyclo [13.5.2.0^{2,6}.0^{8,10}.0^ {18,22}]docosa-1(21),16, 18(22),19-tetraen-7-one], for which the concentration for half-maximal inhibition (IC50) stood at 81 nM.

Regarding `COc1cc(C(=O)N2CC[C@@H]3CCCN[C@@H]3C2)cc2nc(-c3cc4ccc5nc4n3CCCCCCC(C)(C)C(=O)N[C@@H]5C)n(C)c12` (single isomer, unassigned) [Example 262, (11˜{R})-17-[5-[(4˜{a}˜{S},8˜{a}˜{S})-2,3,4,4˜{a},5,6,8,8˜{a}-octahydro-1˜{H}-1,7-naphthyridine-7-carbonyl]-7-methoxy-1-methyl-benzimidazol-2-yl]-8,8,11-trimethyl-1,10,19-triazatricyclo[10.5.2.0^{15,18}]nonadeca-12(19),13,15(18),16-tetraen-9-one], the IC50 turned out to be 4440 nM.

Regarding `C[C@H]1NC(=O)C(C)(C)CCCCCCn2c(-c3nc4cc(C(=O)N5C[C@H](N)[C@@H]6CC[C@H]5C6)cc(F)c4n3C3CC3)cc3ccc1cc32` [Example 462, (11~{R})-17-[5-[(1~{S},4~{R},5~{R})-4-amino-2-azabicyclo[3.2.1]octane-2-carbonyl]-1-cyclopropyl-7-fluoro-benzimidazol-2-yl]-8,8,11-trimethyl-1,10-diazatricyclo[10.5.2.0^{15,18}]nonadeca-12(19),13,15(18),16-tetraen-9-one], the 50% inhibitory concentration (IC50) amounted to 31 nM.

In the case of `COc1cc(C(=O)N[C@H]2CNCC[C@@H]2F)cc2nc(-c3cc4ccc5nc4n3CCCCCCC3(CC(F)(F)C3)C(=O)N[C@@H]5C)n(C)c12` [Example 400, 2-[(11~{R})-1′,1′-difluoro-11-methyl-9-oxo-spiro[1,10,19-triazatricyclo[10.5.2.0^{15,18}]nonadeca-12(19),13,15(18),16-tetraene-8,3′-cyclobutane]-17-yl]-~{N}-[(3~{S},4~{S})-4-fluoro-3-piperidyl]-7-methoxy-1-methyl-benzimidazole-5-carboxamide], the half-inhibitory concentration (IC50) came out at 150 nM.
